Tested on: human (tumor) Hif2α (EPAS1) mRNA
Assay: Hif2α knockdown in orthotopic RCC tumor bearing mice, single injection of RNAi trigger-delivery polymer conjugate, RT-qPCR (Table 7)
Format: in vivo
Settings: single tail vein injection, relative to isotonic glucose
Experimental: A pCR3.1 expression vector expressing the reporter gene secreted alkaline phosphatase (SEAP) under the CMV promoter was prepared by directional cloning of the SEAP coding sequence PCR amplified from Clontech's pSEAP2-basic vector. Convenient restriction sites were added onto primers used to amplify the SEAP coding sequence for cloning into the pCR3.1 vector (Invitrogen). The resultant construct pCR3-SEAP was used to create a SEAP-expressing A498 ccRCC cell line. Briefly, pCR3-SEAP plasmid was transfected into A498 ccRCC cells by electroporation following manufacturer's recommendation. Stable transfectants were selected by G418 resistance. Selected A498-SEAP clones were evaluated for SEAP expression and integration stability.
Female athymic nude mice were anesthetized with ˜3% isoflourane and placed in the right lateral decubitus position. A small, 0.5-1 cm, longitudinally abdominal incision in the left flank was made. Using a moist cotton swab, the left kidney was lifted out of the peritoneum and gently stabilized. Just before injection, a 1.0 ml syringe was filled with the cell/Matrigel mixture and a 27 gauge needle catheter was attached to the syringe tip. The filled syringe was then attached to a syringe pump (Harvard Apparatus, model PHD2000) and primed to remove air. The tip of a 27-gauge needle catheter attached to a syringe was inserted just below the renal capsule near the caudal pole and the tip of the needle was then carefully advanced cranially along the capsule 3-4 mm. A 10 μl aliquot of 2:1 (vol:vol) cell/matrigel mixture containing about 300,000 cells was slowly injected into the kidney parenchyma using a syringe pump. The needle was left in the kidney for 15-20 seconds to ensure the injection was complete. The needle was then removed from the kidney and a cotton swab was placed over the injection site for 30 seconds to prevent leakage of the cells or bleeding. The kidney was then gently placed back into the abdomen and the abdominal wall was closed. Serum was collected every 7-14 days after implantation to monitor tumor growth using a commercial SEAP assay kit. For most studies, tumor mice were used 5-6 weeks after implantation, when tumor measurements were typically around 4-8 mm.
RGD targeted HiF2α-RNAi trigger delivery conjugates. Delivery polymers were modified using RGD-PEG-HyNic, RGD-PEG-ACit-PNP, or RDG-PEG-FCitFP-TFP and PEG-dipeptide modifying agents. The indicated amount of polymer 126 or 100A polymer was modified with 8×PEG12-ACit-PABC-PNP/0.5× aldehyde-PEG24-FCit-PABC-PNP (with RGD mimic #1-PEG-HyNic using protocol #1) and the indicated amount of the indicated Hif2α RNAi trigger. Polymer 064 was modified according to protocol 7. Kidney RCC tumor-bearing mice were generated as described and treated with a single tail vein injection of isotonic glucose (G1) or the indicated Hif2α RNAi trigger-delivery polymer conjugate. Mice were euthanized at the indicated time after injection and total RNA was prepared from kidney tumor using Trizol reagent following manufacturer's recommendation. Relative HiF2α mRNA levels were determined by RT-qPCR as described below and compared to mice treated with delivery buffer (isotonic glucose) only.
In preparation for quantitative PCR, total RNA was isolated from tissue samples homogenized in TriReagent (Molecular Research Center, Cincinnati, Ohio) following the manufacturer's protocol. Approximately 500 ng RNA was reverse-transcribed using the High Capacity cDNA Reverse Transcription Kit (Life Technologies). For human (tumor) Hif2α (EPAS1) expression, pre-manufactured TaqMan gene expression assays for human Hif2α (Catalog #4331182) and CycA (PPIA) Catalog #: 4326316E) were used in biplex reactions in triplicate using TaqMan Gene Expression Master Mix (Life Technologies) or VeriQuest Probe Master Mix (Affymetrix). […]

[1] = RNAi trigger 80 μg, polymer 126 400 μg
[2] = RNAi trigger 115 μg, polymer 100A 375 μg

Substance	Relative Expression day 4 (Hif2α mRNA in kidney tumor) [1]	Relative Expression day 4 (Hif2α mRNA in kidney tumor) [2]
AD01255 (antisense TUUCAUGAAAUCGUUACGUTT; sense UAUACGUAACGAUUUCAUGAAAT; Hif2alpha RNAi agent antisense strand; modified_base 2,4,6,8,10,12,14,16,18 /mod_base = “2′-deoxy-2′-fluoro corresponding nucleoside”; modified_base 3,5,7,9,11,13,15,17,19 /mod_base = “2′-O-methyl corresponding nucleoside”; modified_base 21 /mod_base = “5′-phosphorothioate corresponding nucleotide”; Hif2alpha RNAi agent sense strand; modified_base 2 modified base = “2′-hydroxy corresponding nucleoside”; modified_base 4,6,8,10,12,14,16,18,20,22 /mod_base = “2′-deoxy-2′-fluoro corresponding nucleoside”; modified_base 1,3,5,7,9,11,13,15,17,19,21 /mod_base = “2′-O-methyl correspondin g nucleosid)	0.28	
AD01256 (antisense TUUCAUGAAAUCGUUACGUTT; sense ACGUAACGAUUUCAUGAAAT; Hif2alpha RNAi agent antisense strand; modified_base 2,4,6,10,12,14,16,18 /mod_base = “2′-deoxy-2′-fluoro corresponding nucleoside”; modified_base 3,5,7,9,11,13,15,17,19 /mod_base = “2′-O-methyl corresponding nucleoside”; modified_base 8 /mod_base = “2′-3′ seco corresponding nucleotide”; modified_base 21 /mod_base = “5′-phosphorothioate corresponding nucleotide”; Hif2alpha RNAi agent sense strand; modified_base 1,3,5,7,9,11,13,15,17,19 /mod_base = “2′-deoxy-2′-fluoro corresponding nucleoside”; modified_base 2,4,6,8,10,12,14,16,18 /mod_base = “2′-O-methyl corresponding nucleoside”; modified_b)	0.22	
AD01257 (antisense TUUCAUGAAAUCGUUACGUTT; sense ACGUAACGAUUUCAUGAAAT; Hif2alpha RNAi agent antisense strand; modified_base 2,4,6,8,10,12,14,16,18 /mod_base = “2′-deoxy-2′-fluoro corresponding nucleoside”; modified_base 3,5,7,11,13,15,17,19 /mod_base = “2′-O-methyl corresponding nucleoside”; modified_base 9 /mod_base = “2′-3′ seco corresponding nucleotide”; modified_base 21 /mod_base = “5′-phosphorothioate corresponding nucleotide”; Hif2alpha RNAi agent sense strand; modified_base 1,3,5,7,9,11,13,15,17,19 /mod_base = “2′-deoxy-2′-fluoro corresponding nucleoside”; modified_base 2,4,6,8,10,12,14,16,18 /mod_base = “2′-O-methyl corresponding nucleoside”; modified_b)	0.24	
AD01258 (antisense TUUCAUGAAAUCGUUACGUTT; sense ACGUAACGAUUUCAUGAAAT; Hif2alpha RNAi agent antisense strand; modified_base 2,4,6,8,10,12,14,16,18 /mod_base = “2′-deoxy-2′-fluoro corresponding nucleoside”; modified_base 3,5,7,9,11,13,17,19 /mod_base = “2′-O-methyl corresponding nucleoside”; modified_base 15 /mod_base = “2′-3′ seco corresponding nucleotide”; modified_base 21 /mod_base = “5′-phosphorothioate corresponding nucleotide”; Hif2alpha RNAi agent sense strand; modified_base 1,3,5,7,9,11,13,15,17,19 /mod_base = “2′-deoxy-2′-fluoro corresponding nucleoside”; modified_base 2,4,6,8,10,12,14,16,18 /mod_base = “2′-O-methyl corresponding nucleoside”; modified_b)	0.38	
AD01288 (antisense TUUCAUGAAAUCGUUACGUTT; sense ACGUAACGAUUUCAUGAAAT; Hif2alpha RNAi agent antisense strand; modified_base 2,4,6,8,10,14,16,18 /mod_base = “2′-deoxy-2′-fluoro corresponding nucleoside”; modified_base 3,5,7,9,11,12,13,15,17,19 /mod_base = “2′-O-methyl corresponding nucleoside”; modified_base 21 /mod_base = “5′-phosphorothioate corresponding nucleotide”; Hif2alpha RNAi agent sense strand; modified_base 1,3,5,7,8,9,11,13,15,17,19 /mod_base = “2′-deoxy-2′-fluoro corresponding nucleoside”; modified_base 2,4,6,10,12,14,16,18 /mod_base = “2′-O-methyl corresponding nucleoside”; modified_base 20 /mod_base = “3′-3′-linked nucleotide”; modified_base 1 /mo)		0.32
AD01289 (antisense TUUCAUGAAAUCGUUACGUTT; sense ACGUAACGAUUUCAUGAAAT; Hif2alpha RNAi agent antisense strand; modified_base 2,4,6,8,10,12,14,16,18 /mod_base = “2′-deoxy-2′-fluoro corresponding nucleoside”; modified_base 3,5,7,9,11,13,15,17,19 /mod_base = “2′-O-methyl corresponding nucleoside”; modified_base 21 /mod_base = “5′-phosphorothioate corresponding nucleotide”; Hif2alpha RNAi agent sense strand; modified_base 1,3,5,6,7,9,11,13,15,17,19 /mod_base = “2′-deoxy-2′-fluoro corresponding nucleoside”; modified_base 2,4,8,10,12,14,16,18 /mod_base = “2′-O-methyl corresponding nucleoside”; modified_base 20 /mod_base = “3′-3′-linked nucleotide”; modified_base 1 /mo)		0.28
AD01290 (antisense TUUCAUGAAAUCGUUACGUTT; sense ACGUAACGAUUUCAUGAAAT; Hif2alpha RNAi agent antisense strand; modified_base 2,4,6,8,10,12,14,16,18 /mod_base = “2′-deoxy-2′-fluoro corresponding nucleoside”; modified_base 3,5,7,9,11,13,15,17,19 /mod_base = “2′-O-methyl corresponding nucleoside”; modified_base 21 /mod_base = “5′-phosphorothioate corresponding nucleotide”; Hif2alpha RNAi agent sense strand; modified_base 1,3,7,9,11,13,15,17,19 /mod_base = “2′-deoxy-2′-fluoro corresponding nucleoside”; modified_base 2,4,5,6,8,10,12,14,16,18 /mod_base = “2′-O-methyl corresponding nucleoside”; modified_base 20 /mod_base = “3′-3′-linked nucleotide”; modified_base 1 /mo)		0.39
